Measurements: patent US4886806A, “Flavone-3-carboxylic acids compounds and pharmaceutical compositions containing them” (Kali-Chemie Pharma GmbH, priority 1987, dated 1989)

Tests used:
[1] = system: carrageenin foot edema in male Wistar rats; assay: Inhibition of carrageenin foot edema in rats (Winter et al.); type: in vivo; settings: Rattus norvegicus, 2 h after irritant; for inhibition in vivo at 100 µmol/kg: 100 μmol/kg p.o.
Experimental: A similar volume of isotonic sodium chloride solution was injected in the left hind foot. The volume of the each rat's foot was measured plethysmometrically both before and two hours after administration of the irritant, and the swelling of the foot volume after the carrageenin application was compared to the foot which was treated only with sodium chloride solution The inhibition of edema formation by the test substances in the treated animals was compared in percentage terms with the animals of the untreated control group.

male mice = assay: Determination of the minimum toxic dose; type: in vivo; settings: max. dose 300 mg/kg, 24 h
Experimental: 3. Determination of the minimum toxic dose.
Male mice of 20 to 25 g weight were given maximal doses of 300 mg/kg of test substance per os. The animals were carefully watched over a period of three hours for toxicity symptoms. Over a period of twenty-four hours after administration, all symptoms and deaths were recorded. Associated symptoms were also watched and recorded. If death or strongly toxic symptoms were noted, further mice were given increasingly lower doses. The lowest dose which brought about death or strongly toxic symptoms was reported as the minimum toxic dose.

[2] = system: oxygen radical-forming activity of peritoneal exudate cells (PEC) of mice; assay: Spontaneous CL and induced CL chemiluminescence test: inhibition of oxygen radical liberation from peritoneal exudate cells (30 min preincubation); type: cell-based; set-up: concentration or dose not given beside the values; settings: for Inhibition in vitro of the oxygen radical liberation, Chemiluminescence Test % inhibition, Ind. CL: induced CL, after ZyC3b activation; for Inhibition in vitro of the oxygen radical liberation, Chemiluminescence Test % inhibition, Spnt. CL: spontaneous CL, before ZyC3b
Experimental: 1. To determine the inhibiting effect on the oxygen radical-forming activity of inflamed cells, the in vitro inhibition of the release of oxygen radicals from activated peritoneal exudate cells (=PEC) of mice was determined in the chemiluminescence (CL) test according to the method of Mueller-Peddinghaus (Int. J. Immunopharmac. 6, 455-466 (1984)). […] The intensity of the chemiluminescence is a measurement of the oxygen radical content in the suspension and thus the degree of activity of the inflamed cells. In this, three functionally different parameters are detected, the spontaneous CL, the induced CL and the peak CL. The spontaneous CL and the induced CL on the one hand and the peak CL on the other hand differ from each other because in the first two parameters the test substances are in contact with the cells for a 30 minute preincubation period before the inflammation irritant is added, whereas with the peak CL the cells are first stimulated, and the test substance is added at the peak of their activity. The measurement of the spontaneous CL thus detects the influence of the test substance on the relative rest activity of inflamed cells, the induced CL represents the effect of the test substances on the activatability of the cells and the inhibition of the peak CL indicates the effect of the test substances on the maximum activity of the inflamed cells. 1.1 Production of PEC suspension used in the test. In order to induce the PEC formation, female mice of 20-25 g body weight were each injected i.p. with 2 ml of a 3% solution of thioglycollate in sterile isotonic sodium chloride solution. Twenty four hours after the thioglycollate injection the cells, which predominantly consisted of polymorphonuclear leucocytes, were recovered by washing out of the abdominal cavity and washed twice. As cell culture medium there was added a commercially available solution under the designation RPMI 1640 (pH 7.2) (produced by Flow Laboratories, […], Germany), which contains 10% fetal calf serum (FCS, produced by Seromed GmbH, Munich, Germany) 18 μmol/l sodium bicarbonate and 2 μmol/l L-glutamine. The cell pellets of four animals each time were resuspended in cell culture medium, collected together and the suspension was made up to 2×10^6 cells per ml with cell culture medium. The cell suspensions were kept under ice cooling until their use the same day. 1.2 Production of the complement opsonized zymosan (=ZyC3 b) suspension used for activation. 200 mg zymosan (glycoprotein mixture isolated from the cell walls of brewer's yeast, Sacchomyces […], produced by Sigma Chemical Co., Munich, Germany) were suspended in 10 ml phosphate buffer solution according to Dulbecco (produced by Flow Laboratories, […], Germany), well stirred and heated for thirty minutes in a water bath to 100° C. After cooling, it was centrifuged for five minutes at 4° C. and at 600 ×g and the supernatant was discarded. The sediment was resuspended in 50 ml human serum and incubated for thirty minutes at 37° C. in a shaking water bath. Then it was centrifuged for five minutes at 600 ×g and 420 C., the supernatant decanted and the sediment washed with phosphate buffer solution. The working suspension of 8×10^-3 g ZyC3 b/ml was produced from the sediment by dilution with phosphate buffer solution (Mueller-Peddinghaus et al., Zbl. Vet. Med. B. 30, 559-575). 1.3 Chemiluminescence (CL) measurement (Peak-CL). […] At the end of this preincubation phase, 100 μl lucigenin were added, and in the course of the subsequent sixteen minute incubation phase the spontaneous CL parameter was determined with two measuring points. Then 100 μl ZyC3 b+100 μl phosphate buffer were added, and during the course of the subsequent twenty-four minute cell activation the induced CL parameter was measured with three measuring points. All measurements were determined twice. The parameters spontaneous CL and induced CL were determined on the same day with two separate cell pools.

Row | SMILES | inhibition in vivo at 215 µmol/kg ([1]; ip, 215 μmol/kg i.p.) [%] | inhibition in vivo at 100 µmol/kg ([1]; po) [%] | Minimal toxic dose mg/kg mouse p.o. (male mice) [mg/kg] | Inhibition in vitro of the oxygen radical liberation, Chemiluminescence Test % inhibition, Ind. CL [2] [%] | Inhibition in vitro of the oxygen radical liberation, Chemiluminescence Test % inhibition, Spnt. CL [2] [%] | inhibition in vivo at 215 µmol/kg ([1]; po, 215 μmol/kg p.o.) [%]
1 | Cl.O=C(c1c(-c2ccccc2)oc2ccccc2c1=O)N1CCN(c2ccccn2)CC1 [Example 1c, 3-{[4-(2-Pyridyl)-piperazin-1-yl]-carbonyl}flavone hydrochloride] | 55 | 44 | > 300 | 39 | 49 | 
2 | O.O=C(O)C(O)C(O)C(=O)O.O=C(c1c(-c2ccccc2)oc2ccccc2c1=O)N1CCN(Cc2ccccc2)CC1 [Example 2b, 3-[(4-benzyl-piperazin-1-yl)-carbonyl]flavone tartrate monohydrate] |  | 25 | > 300 | 54 | 67 | 
3 | CCN(CC)CCCOC(=O)c1c(-c2ccccc2)oc2ccccc2c1=O.Cl [Example 3b, 3-[3-(diethylamino)propoxycarbonyl]flavone hydrochloride] |  |  | 300 | 83 | 94 | 
4 | O=C(NCCCCN1CCN(c2ccccn2)CC1)c1c(-c2ccccc2)oc2ccccc2c1=O [Example 4e, 3-{4-[4-(2-pyridyl)-piperazin-1-yl]-butylaminocarbonyl}flavone] | 54 |  | 300 | 82 | 95 | 50
5 | COc1cc(-c2oc3ccccc3c(=O)c2C(=O)N2CCN(c3ccccn3)CC2)cc(OC)c1OC [Example 7a, 3',4',5'-trimethoxy-3-{[4-(2-pyridyl)-piperazin-1-yl]-carbonyl}flavone] |  |  | > 300 | 65 | 75 | 
6 | COc1cc(-c2oc3ccccc3c(=O)c2C(=O)N2CCN(c3ccccn3)CC2)cc(OC)c1OC [Example 7b, 3',4',5'-trimethoxy-3-{[4-(2-pyridyl)-piperazin-1-yl]-carbonyl}flavone] |  |  | > 300 | 50 | 61 | 40
7 | O.O.O=C(O)C(O)C(O)C(=O)O.O=C(c1c(-c2cc(O)c(O)c(O)c2)oc2ccccc2c1=O)N1CCN(Cc2ccccc2)CC1 [Example 14e, 3',4',5'-trihydroxy-3-[(4-benzylpiperazin-1-yl)carbonyl] -flavone tartrate dihydrate] | 33 |  | > 300 | 99 | 98 | 
8 | CN1CCN(CCCCNC(=O)c2c(-c3ccccc3)oc3ccccc3c2=O)CC1 [Example 24] |  |  | > 300 | 14 | 55 | 
9 | O=C(c1c(-c2cccc(O)c2)oc2ccccc2c1=O)N1CCN(Cc2ccccc2)CC1 [Example 30] |  |  | > 300 | 85 | 85 | 
10 | COc1ccc(-c2oc3ccccc3c(=O)c2C(=O)N2CCN(c3ccccn3)CC2)cc1OC [Example 32b] |  |  | > 300 | 65 | 71 | 
11 | COc1cc(OC)c2c(=O)c(C(=O)N3CCN(c4ccccn4)CC3)c(-c3ccccc3)oc2c1 [Example 34] |  |  |  | 55 | 54 | 30
12 | CC(=O)Oc1cc(-c2oc3ccccc3c(=O)c2C(=O)N2CCN(c3ccccn3)CC2)cc(OC(C)=O)c1OC(C)=O [Example 39b] | 62 |  |  | 99 | 99 | 
13 | O=C(NCCc1ccccn1)c1c(-c2cc(O)c(O)c(O)c2)oc2ccccc2c1=O [Example 53] | 50 |  |  | 83 | 73 | 
14 | COc1cc(-c2oc3ccccc3c(=O)c2C(=O)NCCCCN2CCN(c3ncccn3)CC2)cc(OC)c1OC [Example 54] | 40 |  | > 300 | 83 | 91 | 
